According to patent publication US12258360B2, “Compositions and methods for treatment of anticancer-drug resistant cancers” (THE GEORGE WASHINGTON UNIVERSITY, priority 2020, dated 2025):

Experiments:
[1] = tested on: IGROV1 cells; assay: flow cytometry (FACS) of propidium-iodide stained IGROV1 cells; format: cell-based, human; details: 1 μM
[2] = target: T1, And-1 (Homo sapiens, UniProt O75717); assay: immunoblot analysis of And-1 expression in IGROV1 cells; format: cell-based; design: endogenous in cells; host or cells: IGROV1 CR; details: immunoblot, read-out: IC50 for inhibition of And-1 expression
T1 sequence (O75717 1-1129): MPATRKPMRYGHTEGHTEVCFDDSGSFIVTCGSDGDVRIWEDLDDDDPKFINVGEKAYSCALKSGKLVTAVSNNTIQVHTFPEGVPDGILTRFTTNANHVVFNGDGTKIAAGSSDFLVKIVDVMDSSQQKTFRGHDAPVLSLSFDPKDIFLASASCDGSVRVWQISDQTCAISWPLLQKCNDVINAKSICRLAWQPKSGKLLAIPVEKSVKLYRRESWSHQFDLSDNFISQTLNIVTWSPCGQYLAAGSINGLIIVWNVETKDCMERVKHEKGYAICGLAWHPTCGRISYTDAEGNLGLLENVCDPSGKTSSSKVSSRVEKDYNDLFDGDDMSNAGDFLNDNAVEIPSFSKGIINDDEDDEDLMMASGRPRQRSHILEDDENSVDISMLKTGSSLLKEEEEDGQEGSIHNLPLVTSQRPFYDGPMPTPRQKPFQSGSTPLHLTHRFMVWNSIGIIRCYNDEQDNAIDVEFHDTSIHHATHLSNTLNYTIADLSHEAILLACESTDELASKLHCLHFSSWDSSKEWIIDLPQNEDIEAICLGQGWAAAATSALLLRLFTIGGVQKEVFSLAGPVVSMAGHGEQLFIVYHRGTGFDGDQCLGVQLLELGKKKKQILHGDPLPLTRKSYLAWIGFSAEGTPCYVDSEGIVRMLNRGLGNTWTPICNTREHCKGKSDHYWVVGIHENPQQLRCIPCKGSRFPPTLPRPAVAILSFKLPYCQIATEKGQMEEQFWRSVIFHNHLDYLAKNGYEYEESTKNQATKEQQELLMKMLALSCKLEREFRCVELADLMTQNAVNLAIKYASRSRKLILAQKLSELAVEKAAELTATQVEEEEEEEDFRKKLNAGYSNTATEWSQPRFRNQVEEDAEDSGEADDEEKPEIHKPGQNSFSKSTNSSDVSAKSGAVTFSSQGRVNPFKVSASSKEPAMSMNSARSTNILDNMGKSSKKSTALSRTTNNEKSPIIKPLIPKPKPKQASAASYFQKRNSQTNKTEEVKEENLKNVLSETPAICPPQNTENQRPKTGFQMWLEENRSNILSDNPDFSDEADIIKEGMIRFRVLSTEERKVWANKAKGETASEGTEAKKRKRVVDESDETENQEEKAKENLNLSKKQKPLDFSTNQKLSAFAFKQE
Procedure: The high IC50 of resveratrol compromises its potential clinical application; therefore, resveratrol was used as a lead compound to screen 12 analogs of resveratrol for potent compounds that can inhibit And-1 (FIG. 14). […] To perform immunoblot analyses, cells were first treated with increasing concentrations of the 12 analogs. After treatment, the cells were harvested and then lysed with RIPA buffer protease inhibitor and phosphatase inhibitor cocktail. Protein concentration was determined by the BCA protein assay. Equal amounts of whole cell lysates were separated on sodium dodecyl sulfate polyacrylamide gel electrophoresis (SDS-PAGE) and transferred onto nitrocellulose membranes. Membranes were then incubated in blocking solution (5% non-fat milk in 20 mM TRIS-HCl, 150 mM NaCl, 0.1% Tween-20) (TBST), followed by incubation with the indicated antibodies at 4° C. overnight. The membranes were then washed in TBST and incubated with HRP-conjugated secondary antibodies for 1 hour at room temperature (21° C.±2° C.). Antibody detection was performed with an enhanced chemiluminescence reaction.

[3] = tested on: IGROV1 CR xenograft; format: in vivo, mice
Procedure: To evaluate the potency of And-1 inhibitors in vivo, IGROV1 or MCF7 cells were subcutaneously implanted into nude mice to form ovarian or breast tumors, respectively. In brief, 5-6 week-old female BALB/c athymic nude mice (CByJ.Cg-Foxn1nu/J, weighting 20-25 grams) were inoculated subcutaneously by injecting the OC cells, cisplatin resistant OC cells or breast cancer cells suspended in 100 μl ice-cold Matrigel/PBS (1:1, V:V; 5×10^6/mouse) into the dorsal flank of each mouse. When the average tumor volume reached 100-150 mm^3, the mice were randomized into subsequent experiment groups. For tumors treated with CH3 only, CH3 was given at 0 mg/kg, 20 mg/kg and 40 mg/kg via intraperitoneal injection twice a week for three weeks. […] The relative tumor volumes were calculated using the formula: a×(b^2)/2, for which a and b represented the longest and shortest diameters, respectively. During the drug treatment, the tumor volume and body weight were measured. Tumor samples were collected 4 days after final administration of the drug.
To assess the efficacy of combination therapy with And-1 inhibitor and cisplatin in vivo, an IGROV1 CR xenograft was treated with vehicle, And-1 inhibitors, cisplatin or combination of cisplatin and And-1 inhibitor via intraperitoneal injection.

[4] = tested on: recruitment of CtIP to DSB sites in IGROV1 cells; assay: immunofluorescence assay of CtIP co-localization with γH2AX after micro-irradiation; format: cell-based, human; details: 1 μM, 30 minutes post irradiation
Procedure: H2AX (H2A histone family member X) becomes phosphorylated on serine 139 (wherein the phosphorylated form is then called […]) as a reaction on DNA double-strand breaks (DSB). And-1 regulates DSB end resection by establishing a condition or acting as a platform for recruitment of the tumor suppressor protein CtIP—a CtBP (carboxy-terminal binding protein)-interacting protein, to the DSB sites. […] In brief, IGROV1 cells were cultured on coverslips coated with 0.01% of poly-L-lysine. After treatment, the cells were then washed once with PBS, then pre-extracted with 0.5% Triton X-100 extraction buffer (10 mM PIPES pH 7.0, 100 mM NaCl, 3 mM MgCl2 and 300 mM sucrose) on ice for 5 minutes. After washing with PBS, cells were fixed with 4% paraformaldehyde in PBS for 15 minutes. Cells were then washed and incubated for 10 minutes in blocking buffer (PBS containing 3% BSA and 0.02% Tween-20) and subsequently incubated for 1 hour with a primary antibody at room temperature. Cells were washed three times with PBS-T (PBS containing 0.02% Tween-20) and then incubated with a secondary antibody (e.g., rabbit Alexa Fluor-594 and mouse Alexa Fluor-488). After washing with PBS-T, cells were mounted with Fluoromount G containing DAPI (4′,6-diamidino-2-phenylindole—a fluorescent stain that binds strongly to adenine-thymine-rich regions in DNA). Slides were then imaged using a Nikon Eclipse 80i microscope. […]

[5] = target: T1, And-1; assay: inhibition of And-1 in OV90 CR cells; format: cell-based; design: endogenous in cells; details: inhibition of And-1, OV90 CR cells
[6] = tested on: SREBP target gene SCD-1; assay: RT-PCR detection of SCD-1 gene expression in AN3CA cells; format: cell-based, human; details: 10 μM; for activity of reducing SCD-1 gene expression (in words) / Relative mRNA expression of SCD-1: AN3CA cells; for Relative mRNA expression of SCD-1: 48 h, DMSO = 1
Procedure: • 1. Experimental reagent • 2. The experimental steps are as follows: • 2.1 AN3CA cell recovery and culture (10% serum 1% double antibody in MEM medium); • 2.2 passages (passage at a ratio of 1:2); • 2.3 Place 6 well plates when the cell status is good, 5×10^5Well, culture overnight; • 2.4 adding medicine: diluting the final concentration of the drug with a culture medium to 10 μM, 2 mL/well; • 2.5 adding medicine for 48 h, and then extracting RNA; • 2.5.1 removing the culture medium, adding 0.5 mL/hole Trizol to lyse the cells, repeatedly blowing and beating the cells by a pipette after 5 min, completely lysing the cells, transferring the cells into a 1.5 mL EP tube without RNase, and standing the tube for 5 min; • 2.5.2 adding 200 µl chloroform, shaking rapidly, mixing, standing for 10 min 12000 rpm/15 min; • 2.5.3 carefully taking out the supernatant, transferring the supernatant into an EP tube, adding isopropanol with the same volume, reversing, uniformly mixing, standing for 10 min, and centrifuging at 12000 rpm/10 min; • 2.5.4 removing the supernatant, adding 1 mL of 75% ethanol for washing, centrifuging at 8000 rpm/5 min once, carefully removing the supernatant, standing at room temperature for 10 min to volatilize the ethanol, and dissolving the precipitate with 40 μL of DEPC treated water when the precipitate becomes transparent; • 2.5.5 RNA concentration was measured and DEPC-treated water was diluted to 100 ng/μL • 2.6 reverse transcription: Kit Takara (PrimeScript RT reagent Kit (Perfect Real Time)

[7] = tested on: AN3CA cells; assay: cell proliferation assay (MTS) in AN3CA cells; format: cell-based, human; details: 48 h; for inhibition of AN3CA cell proliferation (in words): 10 μM
Procedure: • 1. The experimental steps are as follows: • 1.1 AN3CA cell recovery and culture (MEM medium, 10% serum, 1% double antibody); • 1.2 Passages (passage at a ratio of 1:2); • 1.3 Place 96-well plate when the cell status is good, 1×10^4 Well, culture overnight; • culture medium with 10% defatted serum • 1.4 Adding medicine: diluting the final concentration of the drug with a culture medium to 10 μM, and treating for 48 h at 100 μL/well; • culture medium with 10% defatted serum • 1.5 Addition of 2 μL MTS/well, care taken to prevent bubble formation, 490 nm data after 1-4 h

[8] = target: T1, And-1; assay: inhibition of And-1 in IGROV1 CR cells; format: cell-based; design: endogenous in cells; host or cells: IGROV1 CR; details: inhibition of And-1, IGROV1 CR cells
[9] = tested on: AN3CA cells; assay: cell clonogenic assay in AN3CA cells; format: cell-based, human; details: 10 μM
Procedure: • 1. The experimental steps are as follows: • 1.1 AN3CA cell recovery and culture (MEM medium, 10% serum, 1% double antibody); • 1.2 Passages (1:2 ratio passage); • 1.3 When the cell state is good, laying 6-hole plates, 500/hole, and culturing overnight; • 1.4 Adding medicine: […], 2 mL/well; • 1.5 Adding medicine in a liquid changing mode every two days; • 1.6 Frequent observation. The culture was terminated when macroscopic colonies appeared in the culture dish. The supernatant was discarded, carefully rinsed 2 times with PBS and air dried. Cells were fixed with 5 mL of 4% paraformaldehyde for 30 minutes or with methanol for 10 minutes. And (3) removing the stationary liquid after air drying, adding a proper amount of GIMSA, dyeing for 10-30 minutes by using the dyeing liquid, then slowly washing away the dyeing liquid by using running water, and air drying. • 1.7 Plates were inverted and overlaid with a piece of transparent film with grid and clones were counted either directly with the naked eye or with a microscope (low power) for clones larger than 10 cells. And finally calculating the clone formation rate. • 1.8 Percent colony formation rate (number of clones/number of inoculated cells)×100%

[10] = target: T1, And-1; assay: cellular thermal shift assay; format: binding; design: endogenous in cells; host or cells: IGROV1 CR; details: cells incubated 8 hours, compared to DMSO
Procedure: To explore whether And-1 inhibitors directly bind to And-1, cellular thermal shift assays were performed in which a small molecule binds to a protein resulting in thermal stabilization of the protein. Briefly, cells were incubated with MG132 (10 μM), DHS, CH3, CH10 or DMSO for 8 hours. After washing with ice-cold PBS (suppled with Protease Inhibitor Cocktail), cells were aliquoted into PCR tubes (100 μL each) and then incubated at different temperatures (from 25° C. to 71° C.) for 4 minutes. After the cells were frozen and thawed twice using liquid nitrogen, proteins were isolated from the cells after centrifugation and incubated at 70° C. for 10 minutes for analysis by western blotting.

With CC(=O)O.Cc1c(-c2ccc(O)cc2)n(Cc2ccc(OCCN3CCCCCC3)cc2)c2ccc(O)cc12 [BZA, reference compound] the “percentage of cells in the S-phase” value [1] was “reduced the percentage of cells in the S-phase”, the IC50 [2] was 0.32 µM and the “And-1 expression in tumor samples (IHC)” value ([3]; IGROV1 CR xenograft) was “suppressed expression of And-1”. For the same compound, the “tumor growth, combination with cisplatin vs cisplatin alone” value ([3]; IGROV1 CR xenograft, cisplatin 8 mg/kg, CH3 20 mg/kg, BZA 2 mg/kg intraperitoneally, three weeks) was “excellent synergy in reducing tumor growth”, the “systemic toxicity of combination with cisplatin (body weight, H&E staining)” value ([3]; mouse, in vivo) was “no obvious systemic toxicity or side effect” and the “recruitment of CtIP to DSB sites induced by micro-irradiation” value [4] was “significantly decreased”.
In the case of OB1OCc2cc(/C=C/c3cccc(C(F)(F)F)c3)ccc21 [Compound II, (E)-5-(3-(trifluoromethyl)styryl)benzo[c][1,2]oxaborol-1(3H)-ol], the IC50 [5] is reported as 21.1 µM, the “activity of reducing SCD-1 gene expression (in words)” value [6] is reported as “better than those of BF-175” and the “Relative mRNA expression of SCD-1” value [6] is reported as 0.39. The “inhibitory effect on Srebp” value ([6]; human endometrial cancer AN3CA cells) was “high inhibitory effect”, the “inhibition of AN3CA cell proliferation (in words)” value [7] was “superior to BF 175” and the inhibition at 10 µM ([7]; Homo sapiens, AN3-CA, MTS) was 80%. The IC50 [8] was 20.4 µM and the “inhibition of clone formation rate” value [9] was “completely inhibit”.
With Oc1ccc(/C=C/c2ccc(O)cc2)cc1 [DHS, reference compound] the “thermal stabilization of And-1 protein at higher temperatures” value [10] was “stabilized” and the IC50 [2] was 8.92 µM.
With OB1OCc2cc(/C=C/c3cc(C(F)(F)F)cc(C(F)(F)F)c3)ccc21 [IV, (E)-5-(3,5-bis(trifluoromethyl)styryl)benzo[c][1,2]oxaborol-1(3H)-ol] the IC50 [5] was 57.9 µM, the “activity of reducing SCD-1 gene expression (in words)” value [6] was “better than those of BF-175” and the “Relative mRNA expression of SCD-1” value [6] was 0.42. For the same compound, the “inhibition of AN3CA cell proliferation (in words)” value [7] was “different degrees of inhibition” and the IC50 [8] was 37.6 µM.
